Measured values taken from patent publication US20150051252A1, “COMPOUNDS FOR USE IN THE TREATMENT OF NEUROBLASTOMA, EWING'S SARCOMA OR RHABDOMYOSARCOMA” (priority 2012, published 2015).

Legend:
Type in all cases: cell-based
[1] = test system: SJRH30 rhabdomyosarcoma cell line; test: Cell line sensitivity (Cell Titer Glo), SJRH30; conditions: SJRH30 cells, 72 h
Method: (§1) Cell culture: Cell lines are obtained from commercial sources including ATCC and DSMZ. All cell lines tested are cultured in RPMI or DMEM plus 10% FBS (Invitrogen) as supplier recommended. Cell lines are cultured in T-175 or 3 layer T-175 “triple” flasks using standard tissue culture techniques that are frequently carried out with a robot (CompacT—The Automation Partnership). All cell lines are thawed from frozen stock, grown at 37 C 5% CO2. Adherent lines are dislodged using TrypLE (Invitrogen), are expanded through at least 1 passage of 1:3 dilution and usually 2 to 3 passages before they are added to assay micro-titer plates. Cell count and viability are measured using Trypan dye exclusion with a ViCell counter (Beckman-Coulture). All cell lines are tested for and shown to be free of Mycoplasma using a PCR detection (http://www.radil.missouri.edu). […]
(§2) All assays are automated and are performed with an ultra-high throughput screening system built by the Genomics Institute of the Novartis Research Foundation (GNF Systems; http://www.gnfsystems.com/). […] Cell Titer Glo (Promega), which measures the amount of ATP in the well, is added and luminescence is read on a ViewLux plate reader (Perkin Elmer). […]

[2] = test system: KYM-1 rhabdomyosarcoma cell line; test: Cell line sensitivity (Cell Titer Glo), KYM-1; conditions: KYM-1 cells, 72 h, maximum observed response; 0% = vehicle, −100% = MG132 1 μM
Method: as §1, §2

[3] = test system: RD rhabdomyosarcoma cell line; test: Cell line sensitivity (Cell Titer Glo), RD; conditions: RD cells, 72 h
Method: as §1, §2

[4] = test system: KELLY neuroblastoma cell line; test: Cell line sensitivity (Cell Titer Glo), KELLY; conditions: KELLY cells, 72 h, maximum observed response; 0% = vehicle, −100% = MG132 1 μM
Method: as §1, §2

[5] = test system: IMR-32 neuroblastoma cell line; test: Cell line sensitivity (Cell Titer Glo), IMR-32; conditions: IMR-32 cells, 72 h, maximum observed response; 0% = vehicle, −100% = MG132 1 μM
Method: as §1, §2

[6] = test system: SK-N-FI neuroblastoma cell line; test: Cell line sensitivity (Cell Titer Glo), SK-N-FI; conditions: SK-N-FI cells, 72 h
Method: as §1, §2

[7] = test system: RH-41 rhabdomyosarcoma cell line; test: Cell line sensitivity (Cell Titer Glo), RH-41; conditions: RH-41 cells, 72 h
Method: as §1, §2

[8] = test system: KP-N-SI9s neuroblastoma cell line; test: Cell line sensitivity (Cell Titer Glo), KP-N-SI9s; conditions: 72 h
Method: as §1, §2

[9] = test system: SK-N-AS neuroblastoma cell line; test: Cell line sensitivity (Cell Titer Glo), SK-N-AS; conditions: SK-N-AS cells, 72 h, maximum observed response; 0% = vehicle, −100% = MG132 1 μM
Method: as §1, §2

[10] = test system: Hs 729 rhabdomyosarcoma cell line; test: Cell line sensitivity (Cell Titer Glo), Hs 729; conditions: Hs 729 cells, 72 h, maximum observed response; 0% = vehicle, −100% = MG132 1 μM
Method: as §1, §2

[11] = test system: A-673 rhabdomyosarcoma cell line; test: Cell line sensitivity (Cell Titer Glo), A-673; conditions: A-673 cells, 72 h
Method: as §1, §2

[12] = test system: G-401 (Rhabdoid) cell line; test: Cell line sensitivity (Cell Titer Glo), G-401; conditions: G-401 cells, 72 h, maximum observed response; 0% = vehicle, −100% = MG132 1 μM
Method: as §1, §2

[13] = test system: TC-71 Ewing's Sarcoma cell line; test: Cell line sensitivity (Cell Titer Glo), TC-71; conditions: TC-71 cells, 72 h
Method: as §1, §2

[14] = test system: SK-ES-1 Ewing's Sarcoma cell line; test: Cell line sensitivity (Cell Titer Glo), SK-ES-1; conditions: SK-ES-1 cells, 72 h
Method: as §1, §2

[15] = test system: SK-N-DZ neuroblastoma cell line; test: Cell line sensitivity (Cell Titer Glo), SK-N-DZ; conditions: SK-N-DZ cells, 72 h
Method: as §1, §2

[16] = test system: SK-N-BE(2) neuroblastoma cell line; test: Cell line sensitivity (Cell Titer Glo), SK-N-BE(2); conditions: SK-N-BE(2) cells, 72 h, maximum observed response; 0% = vehicle, −100% = MG132 1 μM
Method: as §1, §2

[17] = test system: MHH-ES-1 Ewing's Sarcoma cell line; test: Cell line sensitivity (Cell Titer Glo), MHH-ES-1; conditions: 72 h
Method: as §1, §2

[18] = test system: TE 617.T rhabdomyosarcoma cell line; test: Cell line sensitivity (Cell Titer Glo), TE 617.T; conditions: TE 617.T cells, 72 h
Method: as §1, §2

[19] = test system: Hs 822.T Ewing's Sarcoma cell line; test: Cell line sensitivity (Cell Titer Glo), Hs 822.T; conditions: Hs 822.T cells, 72 h
Method: as §1, §2

[20] = test system: G-402 (Leiomyoblastoma) cell line; test: Cell line sensitivity (Cell Titer Glo), G-402; conditions: G-402 cells, 72 h, maximum observed response; 0% = vehicle, −100% = MG132 1 μM
Method: as §1, §2

[21] = test system: SIMA neuroblastoma cell line; test: Cell line sensitivity (Cell Titer Glo), SIMA; conditions: SIMA cells, 72 h, maximum observed response; 0% = vehicle, −100% = MG132 1 μM
Method: as §1, §2

[22] = test system: SK-N-SH neuroblastoma cell line; test: Cell line sensitivity (Cell Titer Glo), SK-N-SH; conditions: SK-N-SH cells, 72 h
Method: as §1, §2

[23] = test system: TE 125.T rhabdomyosarcoma cell line; test: Cell line sensitivity (Cell Titer Glo), TE 125.T; conditions: TE 125.T cells, 72 h, maximum observed response; 0% = vehicle, −100% = MG132 1 μM
Method: as §1, §2

[24] = test system: CHP-212 neuroblastoma cell line; test: Cell line sensitivity (Cell Titer Glo), CHP-212; conditions: CHP-212 cells, 72 h
Method: as §1, §2

[25] = Cell Titer Glo, inflection point, 0.0025 to 8 uM, read-out: COMPOUND I EC50
[26] = maximum observed response, 0% = vehicle, −100% = MG132 1 μM

EC50 [1, 25]: 2800 nM
EC50 [3, 25]: 3300 nM
EC50 [6, 25]: 6100 nM
EC50 [7, 25]: 1600 nM
EC50 ([8]; KP-N-SI9s cells (KRAS mutation), Cell Titer Glo, inflection point, 0.0025 to 8 uM, read-out: COMPOUND I EC50): 600 nM
EC50 [11, 25]: 5700 nM
EC50 ([13]; read-out: COMPOUND I EC50, Cell Titer Glo, inflection point, 0.0025 to 8 uM, heading: COMPOUND I EC50): > 8000 nM
EC50 [14, 25]: 500 nM
EC50 [15, 25]: 5300 nM
EC50 ([17]; MHH-ES-1 cells (amplified PIK3CA), Cell Titer Glo, inflection point, 0.0025 to 8 uM, read-out: COMPOUND I EC50): 2700 nM
EC50 [18, 25]: 3800 nM
EC50 [19, 25]: 1500 nM
EC50 [22, 25]: 1600 nM
EC50 [24, 25]: 800 nM
Compound: Cc1nc(NC(=O)N2CCC[C@H]2C(N)=O)sc1-c1ccnc(C(C)(C)C(F)(F)F)c1 [COMPOUND I, (S)-Pyrrolidine-1,2-dicarboxylic acid 2-amide 1-({4-methyl-5-[2-(2,2,2-trifluoro-1,1-dimethyl-ethyl)-pyridin-4-yl]-thiazol-2-yl}-amide)]
COMPOUND I Amax (% inhibition) [1, 26]: −56.5%
COMPOUND I Amax (% inhibition) [2]: −38.0%
COMPOUND I Amax (% inhibition) [3, 26]: −43.2%
COMPOUND I Amax (% inhibition) [4]: −4.3%
COMPOUND I Amax (% inhibition) [5]: −8.9%
COMPOUND I Amax (% inhibition) [6, 26]: −55.6%
COMPOUND I Amax (% inhibition) [7, 26]: −85.4%
COMPOUND I Amax (% inhibition) ([8]; KP-N-SI9s cells, maximum observed response, 0% = vehicle, −100% = MG132 1 μM): −54.2%
COMPOUND I Amax (% inhibition) [9]: −11.6%
COMPOUND I Amax (% inhibition) [10]: −10.2%
COMPOUND I Amax (% inhibition) [11, 26]: −56.2%
COMPOUND I Amax (% inhibition) [12]: −46.6%
COMPOUND I Amax (% inhibition) [13, 26]: −5.4%
COMPOUND I Amax (% inhibition) [14, 26]: −51.7%
COMPOUND I Amax (% inhibition) [15, 26]: −42.4%
COMPOUND I Amax (% inhibition) [16]: −8.7%
COMPOUND I Amax (% inhibition) ([17]; MHH-ES-1 cells, maximum observed response, 0% = vehicle, −100% = MG132 1 μM): −79.2%
COMPOUND I Amax (% inhibition) [18, 26]: −55.2%
COMPOUND I Amax (% inhibition) [19, 26]: −31.6%
COMPOUND I Amax (% inhibition) [20]: −26.4%
COMPOUND I Amax (% inhibition) [21]: −42.0%
COMPOUND I Amax (% inhibition) [22, 26]: −44.6%
COMPOUND I Amax (% inhibition) [23]: −49.8%
COMPOUND I Amax (% inhibition) [24, 26]: −30.9%
